# Columns and labels:
# Experiment in all cases: relative viability (nuclei count vs DMSO), 5 days (fraction); higher = more cells survive
# 201T = tested on: 201T
# How it was run: (§1)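 The day after seeding in 1536-well plates, lung cancer cell lines were treated by pin tool with a single drug, or with a fixed anchor-drug dose together with five library-drug doses (not always all listed) in √10 steps. After 5 days, a combined fix-and-stain solution (final 0.05% Triton X-100, 1% formaldehyde, 1 ug/ml Hoechst) was added. Nuclei counted on 4× images gave relative viability as treated counts over vehicle counts, reported as the median of duplicate plates.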
# ABC-1 = tested on: ABC-1
# How it was run: as §1
# BEN = tested on: BEN
# How it was run: as §1
# CAL-12T = tested on: CAL-12T
# How it was run: as §1
# COR-L 105 = tested on: COR-L 105
# How it was run: as §1
# EKVX = tested on: EKVX
# How it was run: as §1
# HARA = tested on: HARA
# How it was run: as §1
# HCC-366 = tested on: HCC-366
# How it was run: as §1
# LK-2 = tested on: LK-2
# How it was run: as §1
# LOU-NH91 = tested on: LOU-NH91
# How it was run: as §1
# NCI-H1437 = tested on: NCI-H1437
# How it was run: as §1
# NCI-H1650 = tested on: NCI-H1650
# How it was run: as §1
# NCI-H1666 = tested on: NCI-H1666
# How it was run: as §1
# NCI-H2009 = tested on: NCI-H2009
# How it was run: as §1
# NCI-H2170 = tested on: NCI-H2170
# How it was run: as §1
# NCI-H3122 = tested on: NCI-H3122
# How it was run: as §1
# NCI-H441 = tested on: NCI-H441
# How it was run: as §1
# NCI-H460 = tested on: NCI-H460
# How it was run: as §1
# NCI-H661 = tested on: NCI-H661
# How it was run: as §1
# NCI-H727 = tested on: NCI-H727
# How it was run: as §1
# PC-14 = tested on: PC-14
# How it was run: as §1
# SW 900 = tested on: SW 900
# How it was run: as §1
smiles,measurement,setting,value
CC(=O)O[C@@]12CO[C@@H]1C[C@H](O)[C@@]1(C)C(=O)[C@H](O)C3=C(C)[C@@H](OC(=O)[C@H](O)[C@@H](NC(=O)OC(C)(C)C)c4ccccc4)C[C@@](O)([C@@H](OC(=O)c4ccccc4)[C@H]21)C3(C)C [Docetaxel] + Cc1cc(Nc2cc(N3CCN(C)CC3)nc(Sc3ccc(NC(=O)C4CC4)cc3)n2)n[nH]1 [Tozasertib] (partner 0.1 µM),relative viability,201T; first compound 0.0002 µM,0.937
same,relative viability,201T; first compound 0.000632 µM,0.751
same,relative viability,201T; first compound 0.002 µM,0.581
same,relative viability,201T; first compound 0.006325 µM,0.453
same,relative viability,201T; first compound 0.02 µM,0.325
same,relative viability,ABC-1; first compound 0.0002 µM,0.15
same,relative viability,ABC-1; first compound 0.000632 µM,0.191
same,relative viability,ABC-1; first compound 0.002 µM,0.195
same,relative viability,ABC-1; first compound 0.006325 µM,0.159
same,relative viability,ABC-1; first compound 0.02 µM,0.218
same,relative viability,BEN; first compound 0.0002 µM,0.499
same,relative viability,BEN; first compound 0.000632 µM,0.503
same,relative viability,BEN; first compound 0.002 µM,0.473
same,relative viability,BEN; first compound 0.006325 µM,0.418
same,relative viability,BEN; first compound 0.02 µM,0.426
same,relative viability,CAL-12T; first compound 0.0002 µM,0.319
same,relative viability,CAL-12T; first compound 0.000632 µM,0.32
same,relative viability,CAL-12T; first compound 0.002 µM,0.227
same,relative viability,CAL-12T; first compound 0.006325 µM,0.251
same,relative viability,CAL-12T; first compound 0.02 µM,0.142
same,relative viability,COR-L 105; first compound 0.0002 µM,0.323
same,relative viability,COR-L 105; first compound 0.000632 µM,0.382
same,relative viability,COR-L 105; first compound 0.002 µM,0.36
same,relative viability,COR-L 105; first compound 0.006325 µM,0.384
same,relative viability,COR-L 105; first compound 0.02 µM,0.344
same,relative viability,EKVX; first compound 0.0002 µM,0.519
same,relative viability,EKVX; first compound 0.000632 µM,0.409
same,relative viability,EKVX; first compound 0.002 µM,0.224
same,relative viability,EKVX; first compound 0.006325 µM,0.212
same,relative viability,EKVX; first compound 0.02 µM,0.149
same,relative viability,HARA; first compound 0.0002 µM,0.0918
same,relative viability,HARA; first compound 0.000632 µM,0.102
same,relative viability,HARA; first compound 0.002 µM,0.0951
same,relative viability,HARA; first compound 0.006325 µM,0.0945
same,relative viability,HARA; first compound 0.02 µM,0.0738
same,relative viability,HCC-366; first compound 0.0002 µM,0.097
same,relative viability,HCC-366; first compound 0.000632 µM,0.0628
same,relative viability,HCC-366; first compound 0.002 µM,0.0488
same,relative viability,HCC-366; first compound 0.006325 µM,0.0475
same,relative viability,HCC-366; first compound 0.02 µM,0.0231
same,relative viability,LK-2; first compound 0.0002 µM,0.155
same,relative viability,LK-2; first compound 0.000632 µM,0.215
same,relative viability,LK-2; first compound 0.002 µM,0.157
same,relative viability,LK-2; first compound 0.006325 µM,0.188
same,relative viability,LK-2; first compound 0.02 µM,0.166
same,relative viability,LOU-NH91; first compound 0.0002 µM,0.657
same,relative viability,LOU-NH91; first compound 0.000632 µM,0.574
same,relative viability,LOU-NH91; first compound 0.002 µM,0.39
same,relative viability,LOU-NH91; first compound 0.006325 µM,0.383
same,relative viability,LOU-NH91; first compound 0.02 µM,0.247
same,relative viability,NCI-H1437; first compound 0.0002 µM,0.354
same,relative viability,NCI-H1437; first compound 0.000632 µM,0.374
same,relative viability,NCI-H1437; first compound 0.002 µM,0.241
same,relative viability,NCI-H1437; first compound 0.006325 µM,0.273
same,relative viability,NCI-H1437; first compound 0.02 µM,0.201
same,relative viability,NCI-H1650; first compound 0.0002 µM,0.386
same,relative viability,NCI-H1650; first compound 0.000632 µM,0.328
same,relative viability,NCI-H1650; first compound 0.006325 µM,0.306
same,relative viability,NCI-H1650; first compound 0.02 µM,0.168
same,relative viability,NCI-H1666; first compound 0.0002 µM,0.564
same,relative viability,NCI-H1666; first compound 0.000632 µM,0.506
same,relative viability,NCI-H1666; first compound 0.002 µM,0.496
same,relative viability,NCI-H1666; first compound 0.006325 µM,0.418
same,relative viability,NCI-H1666; first compound 0.02 µM,0.31
same,relative viability,NCI-H2009; first compound 0.0002 µM,0.626
same,relative viability,NCI-H2009; first compound 0.000632 µM,0.747
same,relative viability,NCI-H2009; first compound 0.002 µM,0.682
same,relative viability,NCI-H2009; first compound 0.006325 µM,0.553
same,relative viability,NCI-H2009; first compound 0.02 µM,0.302
same,relative viability,NCI-H2170; first compound 0.0002 µM,0.615
same,relative viability,NCI-H2170; first compound 0.000632 µM,0.581
same,relative viability,NCI-H2170; first compound 0.002 µM,0.43
same,relative viability,NCI-H2170; first compound 0.006325 µM,0.222
same,relative viability,NCI-H2170; first compound 0.02 µM,0.175
same,relative viability,NCI-H3122; first compound 0.0002 µM,0.339
same,relative viability,NCI-H3122; first compound 0.000632 µM,0.278
same,relative viability,NCI-H3122; first compound 0.002 µM,0.217
same,relative viability,NCI-H3122; first compound 0.006325 µM,0.179
same,relative viability,NCI-H3122; first compound 0.02 µM,0.122
same,relative viability,NCI-H441; first compound 0.0002 µM,0.634
same,relative viability,NCI-H441; first compound 0.000632 µM,0.489
same,relative viability,NCI-H441; first compound 0.002 µM,0.293
same,relative viability,NCI-H441; first compound 0.006325 µM,0.306
same,relative viability,NCI-H441; first compound 0.02 µM,0.248
same,relative viability,NCI-H460; first compound 0.0002 µM,0.358
same,relative viability,NCI-H460; first compound 0.000632 µM,0.368
same,relative viability,NCI-H460; first compound 0.002 µM,0.0923
same,relative viability,NCI-H460; first compound 0.006325 µM,0.0604
same,relative viability,NCI-H460; first compound 0.02 µM,0.0207
same,relative viability,NCI-H661; first compound 0.0002 µM,0.367
same,relative viability,NCI-H661; first compound 0.000632 µM,0.387
same,relative viability,NCI-H661; first compound 0.002 µM,0.432
same,relative viability,NCI-H661; first compound 0.006325 µM,0.352
same,relative viability,NCI-H661; first compound 0.02 µM,0.4
same,relative viability,NCI-H727; first compound 0.0002 µM,0.781
same,relative viability,NCI-H727; first compound 0.000632 µM,0.614
same,relative viability,NCI-H727; first compound 0.002 µM,0.611
same,relative viability,NCI-H727; first compound 0.006325 µM,0.518
same,relative viability,NCI-H727; first compound 0.02 µM,0.398
same,relative viability,PC-14; first compound 0.0002 µM,0.534
same,relative viability,PC-14; first compound 0.000632 µM,0.489
same,relative viability,PC-14; first compound 0.002 µM,0.0877
same,relative viability,PC-14; first compound 0.006325 µM,0.0613
same,relative viability,PC-14; first compound 0.02 µM,0.0312
same,relative viability,SW 900; first compound 0.0002 µM,0.453
same,relative viability,SW 900; first compound 0.000632 µM,0.296
same,relative viability,SW 900; first compound 0.002 µM,0.259
same,relative viability,SW 900; first compound 0.006325 µM,0.277
same,relative viability,SW 900; first compound 0.02 µM,0.173
